According to patent US7115728B1, “Human peroxisome proliferator activated receptor γ” (Ligand Pharmaceutical Incorporated, priority 1995, dated 2006):
Values belong to the molecule of their own block, whether it stands above or below them.

Experiments:
hPPARγ [1] = molecular target: T1, hPPARγ (Homo sapiens, UniProt P37231); test: Co-transfection assay, transactivation of hPPARγ (pCMVhPPARγ) in CV-1 cells, FIG. 1; conditions: CV-1 cells transfected with 0.1 μg pCMVhPPARγ; compared with empty vector pBKCMV (no receptor)
T1 sequence (P37231 with tags, fused parts or gaps limits assumed): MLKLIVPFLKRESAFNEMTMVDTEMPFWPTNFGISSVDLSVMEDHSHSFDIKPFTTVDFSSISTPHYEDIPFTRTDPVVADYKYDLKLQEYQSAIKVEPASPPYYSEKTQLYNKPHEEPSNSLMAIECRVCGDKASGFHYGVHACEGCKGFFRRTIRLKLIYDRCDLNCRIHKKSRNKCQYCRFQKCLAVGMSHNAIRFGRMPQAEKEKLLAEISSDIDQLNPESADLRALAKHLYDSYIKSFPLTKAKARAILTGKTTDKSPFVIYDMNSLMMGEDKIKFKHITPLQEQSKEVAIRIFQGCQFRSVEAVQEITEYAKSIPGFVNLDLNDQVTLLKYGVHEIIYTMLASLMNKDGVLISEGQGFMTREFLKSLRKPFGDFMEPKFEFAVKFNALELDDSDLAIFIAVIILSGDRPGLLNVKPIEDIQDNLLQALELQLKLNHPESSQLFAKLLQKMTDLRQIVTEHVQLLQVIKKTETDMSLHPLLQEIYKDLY
Method: CV-1 cells were transfected with 0.1 μg pCMVhPPARγ or the empty expression vector pBKCMV (no receptor).
CV-1 or HepG2 cells were grown in Dulbecco's modified Eagle's medium (DMEM) supplemented with 10% (v/v) fetal bovine serum (Hyclone), 2 mM L-glutamine, and 55 μg/ml gentamicin (BioWhittaker). Cells were plated at 2×10^5 cells per well for HepG2 in 12 well cell culture dishes (Costar). The media was replaced with fresh media 20 hours later.
After 14 hours the cells were washed with 1×PBS and fresh media added (DMEM with 10% charcoal stripped fetal bovine serum (Hyclone) plus the above supplements). Ligands or PPAR activators were added to the final concentrations indicated. Control cells were treated with vehicle.
After another 24 hours the cells were harvested and the luciferase and β-galactosidase activities quantified on a Dynatech ML 1000 luminometer and a Beckman Biomek 1000 workstation respectively. The normalized response is the luciferase activity of the extract divided by the β-galactosidase activity of the same. Each data point represents the mean of three transfections. Error bars represent the standard deviation from the mean.
Control cells received an equivalent amount of vehicle. In the repression assays repressor plasmid dosage was kept constant by adding the appropriate amount of the empty expression vector pBKCMV.

mPPARγ = conditions: Tontonoz et al. 1994; Kliewer et al.; cited from earlier work
[2] = system: CV-1 cells transfected with the empty expression vector pBKCMV (no receptor); test: Co-transfection assay, control CV-1 cells transfected with empty expression vector, FIG. 4; format: cell-based, monkey; conditions: CV-1 cells transfected with the empty expression vector (no receptor); 1 μM compound
Method: (§1) CV-1 cells were transfected with pCMVhPPARγ3 or the empty expression vector pBKCMV (no receptor). Thiazolidinedione was added.
(§2) Biochem. Molec. Biol. 41, 733–738).
(§3) Control cells were treated with vehicle.
(§4) Each data point represents the mean of three transfections. Error bars represent the standard deviation from the mean.
(§5) A cotransfection assay was performed in CV-1 cells with the pPREA3-tk-LUC and 1 μM thiazolidinedione (BRL 49,653, see Ibrahimi et al., Molecular Pharmacology 46:1070–1076, 1994). Thiazolidinedione is an insulin sensitizer and has potential use in the treatment of non-insulin dependant diabetes mellitus.

hPPARγ [3] = molecular target: T2, hPPARγ (Homo sapiens, UniProt P37231); test: Co-transfection assay with pCMVhPPARγ3 and pPREA3-tk-LUC reporter in CV-1 cells, FIG. 4; format: cell-based; conditions: CV-1 cells transfected with pCMVhPPARγ3; pPREA3-tk-LUC; 1 μM compound; read-out: fold induction of reporter gene
T2 construct: expressed in transfected cells; host or cells: CV-1 cells
T2 sequence (P37231 31-505): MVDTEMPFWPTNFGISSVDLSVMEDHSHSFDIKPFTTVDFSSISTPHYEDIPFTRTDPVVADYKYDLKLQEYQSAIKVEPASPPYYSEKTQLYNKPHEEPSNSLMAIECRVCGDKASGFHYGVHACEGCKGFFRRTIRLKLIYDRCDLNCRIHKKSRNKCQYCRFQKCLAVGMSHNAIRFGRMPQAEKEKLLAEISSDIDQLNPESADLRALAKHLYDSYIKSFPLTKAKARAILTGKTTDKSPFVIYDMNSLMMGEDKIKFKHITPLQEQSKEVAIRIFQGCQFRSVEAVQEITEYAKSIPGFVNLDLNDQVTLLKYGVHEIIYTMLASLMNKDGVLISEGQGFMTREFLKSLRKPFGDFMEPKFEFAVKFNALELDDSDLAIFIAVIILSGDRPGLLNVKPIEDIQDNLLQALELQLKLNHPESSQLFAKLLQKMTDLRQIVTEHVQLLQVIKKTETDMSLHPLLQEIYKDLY
Method: as §1, §2, §3, §4
To increase the level of hPPARγ protein synthesis, Applicant deleted a region containing the two inframe upstream ATG codons since these are absent in mouse PPARγ. pCMVhPPARγ was digested with NcoI, blunt ended with Klenow, and digested again with KpnI. The insert was isolated and directionally cloned into pBKCMV plasmid, which was digested with XbaI (blunt ended with Klenow) and KpnI. In the ensuing plasmid pCMVhPPARγ3, the translation initiation codon is within the context of a stronger Kozak translation initiation sequence.
as §5

hPPARα = molecular target: T3, hPPARα (Homo sapiens, UniProt Q07869); test: Co-transfection assay, activation of hPPARα, FIG. 2; format: cell-based; conditions: CV-1 cells transfected with 0.1 μg pCMVhPPARα; gemfibrozil final concentration printed as 100 M
T3 construct: expressed in transfected cells; host or cells: CV-1 cells
T3 sequence (Q07869 1-468): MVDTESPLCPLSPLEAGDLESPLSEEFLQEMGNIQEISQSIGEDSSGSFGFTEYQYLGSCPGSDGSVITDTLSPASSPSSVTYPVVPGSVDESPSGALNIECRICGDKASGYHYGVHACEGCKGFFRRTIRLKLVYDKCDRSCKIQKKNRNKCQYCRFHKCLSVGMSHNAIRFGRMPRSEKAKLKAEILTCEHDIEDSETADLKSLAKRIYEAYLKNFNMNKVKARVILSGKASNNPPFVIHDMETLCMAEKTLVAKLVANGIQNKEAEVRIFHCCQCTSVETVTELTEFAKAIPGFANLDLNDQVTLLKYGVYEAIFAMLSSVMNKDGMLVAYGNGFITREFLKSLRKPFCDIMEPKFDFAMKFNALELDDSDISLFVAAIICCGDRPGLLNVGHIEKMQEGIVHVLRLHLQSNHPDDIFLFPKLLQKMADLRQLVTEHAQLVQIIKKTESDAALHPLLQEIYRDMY
Method: CV-1 cells were transfected with 0.1 μg of pCMVhPPARα and 0.1 or 0.4 μg of pCMVhNUC1 or pCMVhPPARγ. Gemfibrozil was added to a final concentration of 100 µM.
as §2
Where indicated, 0–0.5 μg of hNUC1B plasmid or hPPARγ plasmid (repressor) was added. Repressor plasmid dosage was kept constant by the addition of appropriate amounts of the empty expression vector pBKCMV. Total amount of DNA was kept at 20 μg by the addition of pGEM DNA (Promega).
as §3, §4
hPPARα is activated in the presence of gemfibrozil. When hNUC1 or hPPARγ is contransfected into cells along with hPPARα, a dose dependant repression was observed (FIG. 2). Repression of hPPARα with hNUC1 is stronger than with hPPARγ. No repression with 0.1 μg of hPPARγ was observed while repression with 0.1 μg of hNUC1 was clearly seen. However, repression with 0.4 μg of hPPARγ was observed.

Compound: CC1=C(/C=C/C(C)=C\C=C\C(C)=C\C(=O)O)C(C)(C)CCC1 [9-cis retinoic acid]
- activation of hPPARγ (fold induction of reporter gene versus control cells) (hPPARγ [1]): same fold activation as in control transfections

Compound: CCCCCC#CCC#CCC#CCC#CCCCC(=O)O [ETYA, 5,8,11,14-eicosatetraynoic acid]
- transcriptional activation of mPPARγ (mPPARγ): transcriptionally activated

Compound: CCCc1c(OCCCCc2nnn[nH]2)ccc(C(C)=O)c1O [LY-171,883]
- transcriptional activation of mPPARγ (mPPARγ): transcriptionally activated

- fold induction at 1 µM (hPPARγ [3]): 25
Compound: O=C1CSC(=O)N1 [Thiazolidinedione]
- fold activation of reporter gene [2]: 7 fold

- activation of hPPARα (hPPARα): activated
Compound: Cc1ccc(C)c(OCCCC(C)(C)C(=O)O)c1 [gemfibrozil]
